Experimental data from ChEMBL document CHEMBL1145489, “Isoniazid induces its own resistance in nonreplicating Mycobacterium tuberculosis” (Antimicrob Agents Chemother, 2007).
Converted amounts (≈) assume the structure as drawn.

Columns and labels:
Assay type in all cases: functional
[1] = system: Mycobacterium tuberculosis; test: Antimicrobial activity against Mycobacterium tuberculosis H37Rv subculture 5 with wild type katG mutation in absence of catalase activity
[2] = system: Mycobacterium tuberculosis; test: Antimicrobial activity against Mycobacterium tuberculosis H37Rv subculture 1 with wild type katG mutation
[3] = system: Mycobacterium tuberculosis; test: Antimicrobial activity against Mycobacterium tuberculosis H37Rv subculture 4 with wild type katG mutation in presence of catalase activity
[4] = system: Mycobacterium tuberculosis; test: Antimicrobial activity against Mycobacterium tuberculosis H37Rv subculture 6 with katG W328R mutant
[5] = system: Mycobacterium tuberculosis; test: Antimicrobial activity against Mycobacterium tuberculosis H37Rv subculture 3 with katG D329H mutant

Question: Which MIC [1] does the source give for `NNC(=O)c1ccncc1` [ISONIAZID] here?
Answer: 0.4 µg/mL (≈ 2.92 µM)

Question: And the MIC [2]?
Answer: 0.4 µg/mL (≈ 2.92 µM)

Question: And the MIC [3]?
Answer: >2 µg/mL

Question: What about the MIC [4] of the same compound?
Answer: >2 µg/mL

Question: What about the MIC [5] of the same compound?
Answer: >2 µg/mL
